Structures can show the parent of a compound that is named as a salt. Where two headings read alike, the source gives them in different places.
Tests used:
[1] = target: T1, α2B receptor (Homo sapiens, UniProt P18089); test: Competition binding, [3H]rauwolscine, human α2B receptor
T1 construct: host or cells: LM(tk-) cells, line L-NGC-α2B
T1 sequence (P18089 1-450): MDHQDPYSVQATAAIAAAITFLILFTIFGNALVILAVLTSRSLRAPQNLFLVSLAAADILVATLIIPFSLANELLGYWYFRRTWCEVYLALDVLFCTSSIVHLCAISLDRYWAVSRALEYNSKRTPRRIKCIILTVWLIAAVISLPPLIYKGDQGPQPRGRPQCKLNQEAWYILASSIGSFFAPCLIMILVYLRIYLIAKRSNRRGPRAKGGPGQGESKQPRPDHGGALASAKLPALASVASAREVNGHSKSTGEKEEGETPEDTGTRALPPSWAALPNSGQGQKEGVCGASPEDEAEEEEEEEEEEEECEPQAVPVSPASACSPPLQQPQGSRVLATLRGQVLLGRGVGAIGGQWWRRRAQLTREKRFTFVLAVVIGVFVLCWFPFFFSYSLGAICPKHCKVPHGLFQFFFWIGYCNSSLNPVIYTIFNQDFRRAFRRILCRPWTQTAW
Method in brief: (§1)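 Equilibrium displacement of [3H]rauwolscine (0.5 nM) measured on membranes from stably transfected LM(tk−) lines, one per α2 subtype, in glycylglycine buffer at pH 7.6. Nonspecific binding set by 10 μM phentolamine; separation by filtration.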

[2] = target: T2, α2C receptor (Homo sapiens, UniProt P18825); test: Competition binding, [3H]rauwolscine, human α2C receptor
T2 construct: host or cells: LM(tk-) cells, line L-α2C
T2 sequence (P18825 1-462): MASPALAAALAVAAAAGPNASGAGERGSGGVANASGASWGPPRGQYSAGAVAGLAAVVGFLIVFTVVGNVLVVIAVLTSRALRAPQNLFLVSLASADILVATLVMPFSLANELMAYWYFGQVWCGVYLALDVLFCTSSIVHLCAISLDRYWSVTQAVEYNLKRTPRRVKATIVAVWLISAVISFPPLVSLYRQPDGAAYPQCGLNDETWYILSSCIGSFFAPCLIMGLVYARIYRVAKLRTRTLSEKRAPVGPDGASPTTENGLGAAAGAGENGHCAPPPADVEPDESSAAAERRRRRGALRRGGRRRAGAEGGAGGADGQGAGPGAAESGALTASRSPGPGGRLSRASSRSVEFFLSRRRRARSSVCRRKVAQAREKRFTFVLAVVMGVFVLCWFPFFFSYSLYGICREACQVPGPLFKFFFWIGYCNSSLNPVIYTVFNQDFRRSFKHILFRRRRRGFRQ
Method in brief: as §1

[3] = target: T3, L-type calcium channel (Rattus norvegicus, UniProt P22002); test: Competition binding of [3H]nitrendipine to membrane fragments of rat cardiac muscle
T3 construct: membrane fragments of rat cardiac muscle; from tissue; host or cells: rat cardiac muscle membranes
T3 sequence (P22002 whole entry, other chains not shown, the tested form may be a part): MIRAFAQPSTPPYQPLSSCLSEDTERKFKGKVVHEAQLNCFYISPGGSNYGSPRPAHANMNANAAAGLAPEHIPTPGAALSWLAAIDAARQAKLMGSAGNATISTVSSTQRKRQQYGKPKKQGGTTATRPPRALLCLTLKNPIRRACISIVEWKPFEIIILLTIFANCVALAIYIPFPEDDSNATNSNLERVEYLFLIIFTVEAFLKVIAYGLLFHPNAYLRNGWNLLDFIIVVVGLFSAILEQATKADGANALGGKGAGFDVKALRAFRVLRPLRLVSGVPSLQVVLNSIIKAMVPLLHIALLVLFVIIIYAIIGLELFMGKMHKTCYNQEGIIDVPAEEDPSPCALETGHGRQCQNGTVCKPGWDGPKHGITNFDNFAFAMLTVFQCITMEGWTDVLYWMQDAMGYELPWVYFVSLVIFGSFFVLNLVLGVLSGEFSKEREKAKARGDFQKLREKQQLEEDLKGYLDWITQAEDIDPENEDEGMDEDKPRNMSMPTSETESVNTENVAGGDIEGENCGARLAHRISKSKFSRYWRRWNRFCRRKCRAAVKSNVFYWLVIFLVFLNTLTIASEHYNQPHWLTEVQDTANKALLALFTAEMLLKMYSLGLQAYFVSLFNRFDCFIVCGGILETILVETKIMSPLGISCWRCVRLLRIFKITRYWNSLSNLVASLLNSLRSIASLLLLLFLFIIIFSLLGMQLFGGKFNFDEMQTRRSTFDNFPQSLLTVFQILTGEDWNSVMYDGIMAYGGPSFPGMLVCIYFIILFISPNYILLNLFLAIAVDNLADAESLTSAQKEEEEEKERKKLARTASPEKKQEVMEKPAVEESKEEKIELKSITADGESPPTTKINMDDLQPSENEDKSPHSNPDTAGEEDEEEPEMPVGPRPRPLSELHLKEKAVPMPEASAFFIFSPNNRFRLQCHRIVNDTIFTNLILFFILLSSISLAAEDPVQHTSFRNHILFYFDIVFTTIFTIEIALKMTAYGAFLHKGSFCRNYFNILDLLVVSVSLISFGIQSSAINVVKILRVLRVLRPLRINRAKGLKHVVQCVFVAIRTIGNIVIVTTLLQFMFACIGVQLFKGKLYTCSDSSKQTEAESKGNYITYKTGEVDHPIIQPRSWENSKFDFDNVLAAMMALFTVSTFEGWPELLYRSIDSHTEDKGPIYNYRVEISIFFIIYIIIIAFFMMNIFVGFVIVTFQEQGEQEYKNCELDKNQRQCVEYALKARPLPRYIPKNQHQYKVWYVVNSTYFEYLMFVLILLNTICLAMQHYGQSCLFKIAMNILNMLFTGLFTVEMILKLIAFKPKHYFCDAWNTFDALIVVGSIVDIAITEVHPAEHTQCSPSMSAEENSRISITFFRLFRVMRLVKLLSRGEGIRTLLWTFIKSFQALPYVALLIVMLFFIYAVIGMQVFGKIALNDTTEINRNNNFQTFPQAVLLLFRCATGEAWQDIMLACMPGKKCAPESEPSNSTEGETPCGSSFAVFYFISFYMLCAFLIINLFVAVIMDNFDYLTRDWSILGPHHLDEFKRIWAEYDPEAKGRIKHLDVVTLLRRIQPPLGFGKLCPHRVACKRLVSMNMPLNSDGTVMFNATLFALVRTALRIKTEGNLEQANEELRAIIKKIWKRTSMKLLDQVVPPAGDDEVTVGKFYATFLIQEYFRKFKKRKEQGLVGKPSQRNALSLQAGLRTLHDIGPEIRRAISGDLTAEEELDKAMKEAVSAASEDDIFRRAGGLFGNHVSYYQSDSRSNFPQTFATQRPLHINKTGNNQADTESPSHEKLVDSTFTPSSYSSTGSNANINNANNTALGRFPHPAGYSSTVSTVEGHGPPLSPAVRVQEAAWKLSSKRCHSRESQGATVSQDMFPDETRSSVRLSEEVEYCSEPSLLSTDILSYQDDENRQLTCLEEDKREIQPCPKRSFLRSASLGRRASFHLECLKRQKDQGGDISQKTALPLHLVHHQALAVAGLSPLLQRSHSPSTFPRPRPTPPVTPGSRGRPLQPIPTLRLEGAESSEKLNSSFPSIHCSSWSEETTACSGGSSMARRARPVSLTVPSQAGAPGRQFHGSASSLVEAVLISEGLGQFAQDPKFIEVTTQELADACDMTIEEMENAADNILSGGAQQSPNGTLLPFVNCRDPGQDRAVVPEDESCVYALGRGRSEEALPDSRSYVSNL
T3 sequence (P54290 25-944 partner limits assumed, other chains not shown): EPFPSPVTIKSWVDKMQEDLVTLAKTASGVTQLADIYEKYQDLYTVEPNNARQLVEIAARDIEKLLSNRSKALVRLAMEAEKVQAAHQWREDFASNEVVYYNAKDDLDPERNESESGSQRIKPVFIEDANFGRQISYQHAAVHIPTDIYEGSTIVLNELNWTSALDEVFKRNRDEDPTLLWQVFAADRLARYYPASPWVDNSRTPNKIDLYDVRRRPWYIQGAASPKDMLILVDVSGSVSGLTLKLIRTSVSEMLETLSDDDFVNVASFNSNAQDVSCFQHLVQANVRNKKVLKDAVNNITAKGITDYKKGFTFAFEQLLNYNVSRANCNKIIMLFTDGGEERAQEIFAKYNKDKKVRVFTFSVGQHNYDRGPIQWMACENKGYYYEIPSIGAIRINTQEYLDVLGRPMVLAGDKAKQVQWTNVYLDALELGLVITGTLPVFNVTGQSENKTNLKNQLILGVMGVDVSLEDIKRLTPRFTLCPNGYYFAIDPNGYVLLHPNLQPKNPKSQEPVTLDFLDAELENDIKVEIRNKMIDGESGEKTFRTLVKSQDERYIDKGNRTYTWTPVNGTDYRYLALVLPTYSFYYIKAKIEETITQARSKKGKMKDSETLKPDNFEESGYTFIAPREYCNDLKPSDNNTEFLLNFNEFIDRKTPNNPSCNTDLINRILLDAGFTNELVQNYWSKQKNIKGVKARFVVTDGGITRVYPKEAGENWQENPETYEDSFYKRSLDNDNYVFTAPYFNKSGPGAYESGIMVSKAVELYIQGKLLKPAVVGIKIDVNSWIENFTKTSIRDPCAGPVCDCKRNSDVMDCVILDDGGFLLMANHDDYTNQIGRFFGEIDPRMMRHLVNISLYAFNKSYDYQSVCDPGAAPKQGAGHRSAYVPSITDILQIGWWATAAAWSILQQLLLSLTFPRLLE
T3 sequence (P54290 945-1091 partner limits assumed, other chains not shown): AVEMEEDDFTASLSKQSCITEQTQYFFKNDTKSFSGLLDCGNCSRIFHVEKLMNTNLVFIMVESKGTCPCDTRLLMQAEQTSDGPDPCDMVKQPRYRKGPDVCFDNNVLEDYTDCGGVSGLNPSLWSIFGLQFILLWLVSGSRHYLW

[4] = [3H]rauwolscine, LM(tk-) cell line L-NGC-α2B, SEM and n in lines below, read-out: pKi alpha-2 2b (converted)
[5] = [3H]rauwolscine, LM(tk-) cell line L-α2C, SEM and n in lines below, read-out: pKi alpha-2 2c (converted)
[6] = [3H]nitrendipine, rat cardiac muscle membranes, SEM and n in lines below, read-out: pKi Ca (converted)
[7] = pKi alpha-2 2b, [3H]rauwolscine, LM(tk-) cell line L-NGC-α2B, SEM and n in lines below
[8] = pKi alpha-2 2b, [3H]rauwolscine, human α2B receptor, LM(tk−) cells
[9] = [3H]rauwolscine, human α2C receptor, LM(tk−) cells, read-out: pKi alpha-2 2c (converted)
[10] = [3H]nitrendipine, rat cardiac muscle membrane fragments, L-type calcium channel, read-out: pKi Ca (converted)

SMILES | Ki ([1]; pKi alpha-2 2b) | Ki ([2]; pKi alpha-2 2c) | Ki ([3]; pKi Ca) | Ki [2, 5] | Ki [3, 6] | other results
COC(=O)C1=C(C)NC(C)=C(C(=O)NCCCN2CCC(c3ccccc3)(c3ccccc3)CC2)C1c1ccc(Cl)c(Cl)c1 (stereo not drawn) [Example 24, 4-(3,4-Dichlorophenyl)-1,4-dihydro-3-methoxycarbonyl-2,6-dimethyl-5-(3-(D 44-diphenylpiperidin-1-yl)propylcarboxamido)pyridine] | 1.26 µM | 0.158 µM | 1.95 µM | – | – | –
COC(=O)C1=C(C)NC(C)=C(C(=O)NCCCN2CCC(c3ccccc3)(c3ccccc3)CC2)C1c1ccc(C(=O)OC)cc1 (stereo not drawn) [Example 25, 1,4-Dihydro-3-methoxycarbonyl-4-(4-methoxycarbonylphenyl)-2,6-dimethyl-5-(N-(3-(4,4-diphenylpiperidin-1-yl)propyl)carboxamide)pyridine] | 0.501 µM | 1.02 µM | 1.15 µM | – | – | –
COC(=O)C1=C(C)NC(C)=C(C(=O)NCCCN2CCC(c3ccccc3)(c3ccccc3)CC2)C1c1ccc(OC)c(OC)c1 (stereo not drawn) [Example 26] | 0.977 µM | 1.48 µM | 0.0871 µM | – | – | –
COC(=O)C1=C(C)NC(C)=C(C(=O)NCCCN2CCC(c3ccccc3)(c3ccccc3)CC2)C1c1cc(OC)c(OC)c(OC)c1 (stereo not drawn) [Example 27] | 1.05 µM | 1.2 µM | 0.589 µM | – | – | –
COC(=O)C1=C(C)NC(C)=C(C(=O)NCCCN2CCC(c3ccccc3)(c3ccccc3)CC2)C1c1ccc([N+](=O)[O-])c(C)c1 (stereo not drawn) [Example 28] | – | – | – | 0.631 µM | 17.4 µM | Ki [1, 4]: 1.66 µM
COC(=O)C1=C(C)NC(C)=C(C(=O)NCCCN2CCC(c3ccccc3)(c3ccccc3)CC2)C1c1ccc([N+](=O)[O-])c(OC)c1 (stereo not drawn) [Example 29, 1,4-Dihydro-3-methoxycarbonyl-4-(3-methoxy-4-nitrophenyl)-2,6-dimethyl-5-(N-(3-(4,4-diphenylpiperidin-1-yl)propyl)carboxamido)pyridine] | – | – | – | 0.398 µM | 13.8 µM | Ki [1, 4]: 0.631 µM
CC1=C(C#N)C(c2ccc([N+](=O)[O-])cc2)C(C(=O)NCCCN2CCC(c3ccccc3)(c3ccccc3)CC2)=C(C)N1 (stereo not drawn) [Example 37] | 1.07 µM | 0.575 µM | 1.35 µM | – | – | –
CC1=C(C(=O)NCCCN2CCC(c3ccccc3)(c3ccccc3)CC2)C(c2ccc([N+](=O)[O-])cc2)C2=C(CCCC2=O)N1 (stereo not drawn) [Example 40, 1,4,5,6,7,8-Hexahydro-2-methyl-4-(4-nitrophenyl)-5-oxo-3-{N-[3-(4,4-diphenylpiperidin-1-yl)propyl]}carboxamidoquinoline] | – | – | – | 0.977 µM | 15.8 µM | Ki [1, 7]: 1.78 µM
COC(=O)C1=C(C)NC(c2ccoc2)=C(C(=O)NCCCN2CCC(c3ccccc3)(c3ccccc3)CC2)C1c1ccc([N+](=O)[O-])cc1 (stereo not drawn) [Example 43, 2-(Furan-3-yl)-, 4-dihydro-5-methoxycarbonyl-6-methyl-4-(4-nitrophenyl)-3-(N-(3-(4,4-diphenylpiperidin-1-yl)propyl)carboxamidopyridine, hydrochloride salt] | – | – | – | 0.398 µM | 18.6 µM | Ki [1, 7]: 0.437 µM
COC(=O)C1=C(C)NC(C)=C(C(=O)N(C)CCCN2CCC(c3ccccc3)(c3ccccc3)CC2)C1c1ccc([N+](=O)[O-])cc1 (stereo not drawn) [Example 46, hydrochloride hemihydrate] | 0.49 µM | 0.245 µM | 7.41 µM | – | – | –
COC(=O)C1=C(C)NC(C)=C(C(=O)NCCN2CCC(c3ccccc3)(c3ccccc3)CC2)C1c1ccc([N+](=O)[O-])cc1 (stereo not drawn) [Example 52, 1,4-Dihydro-3-methoxycarbonyl-2,6-dimethyl-4-(4-nitrophenyl)-5-{N-[2-(4,4-diphenylpiperidin-1-yl)ethyl]}carboxamidopyridine hydrochloride hemihydrate] | 0.794 µM | 0.263 µM | 5.13 µM | – | – | –
CC1=C(C(N)=O)C(c2ccc([N+](=O)[O-])cc2)C(C(=O)NCCN2CCC(c3ccccc3)(c3ccccc3)CC2)=C(C)N1 (stereo not drawn) [Example 54, 5-Carboxamide-1,4-dihydro-2,6-dimethyl-4-(4-nitrophenyl)-3-{N-[2-(4,4-diphenylpiperidin-1-yl)ethyl]}carboxamidopyridine hydrochloride hydrate] | – | – | – | 0.158 µM | 58.9 µM | Ki [1, 7]: 0.302 µM
CC1=C(C(N)=O)C(c2cccc([N+](=O)[O-])c2)C(C(=O)NCCCN2CCC(c3ccccc3)(c3ccccc3)CC2)=C(C)N1 (stereo not drawn) [Example 61, 5-Carboxamido-1,4-dihydro-2,6-dimethyl-4-(3-nitrophenyl)-3-{N-[3-(4,4-diphenylpiperidin-1-yl)propyl]}carboxamidopyridine] | – | – | – | 0.479 µM | 10.2 µM | Ki [1, 4]: 0.603 µM
CC1=C(C(=O)NCCCN2CCC(c3ccccc3)(c3ccccc3)CC2)C(c2ccc([N+](=O)[O-])cc2)c2c([nH]c(=O)[nH]c2=O)N1 (stereo not drawn) [Example 64] | – | – | – | 0.479 µM | 97.7 µM | Ki [1, 7]: 0.437 µM
CCC1=C(C(=O)NCCCN2CCC(c3ccccc3)(c3ccccc3)CC2)C(c2ccc([N+](=O)[O-])cc2)C(C(=O)OC)=C(C)N1 (stereo not drawn) [Example 73, 2-Ethyl-1,4-dihydro-5-methoxycarbonyl-6-methyl-4-(4-nitro) phenyl-3-(N-(3-(4,4-diphenylpiperidin-1-yl)propyl))carboxamidopyridine] | 0.676 µM | 0.275 µM | 0.759 µM | – | – | –
COC(=O)C1=C(C)NC(c2ccccc2)=C(C(=O)NCCCN2CCC(c3ccccc3)(c3ccccc3)CC2)C1c1ccc([N+](=O)[O-])cc1 (stereo not drawn) [Example 78, 1,4-Dihydro-5-methoxycarbonyl-6-methyl-4-(4-nitro)phenyl-2-phenyl-3-(N-(3-(4,4-diphenylpiperidin-1-yl)propyl))carboxamidopyridine hydrochloride hydrate] | 0.55 µM | 0.151 µM | 3.16 µM | – | – | –
CCC1=C(C(=O)NCCCN2CCC(c3ccccc3)(c3ccccc3)CC2)C(c2ccc([N+](=O)[O-])cc2)C(C(N)=O)=C(C)N1 (stereo not drawn) [Example 81, 5-carboxamido-2-ethyl-1,4-dihydro-6-methyl-4-(4-nitro)phenyl-3-(N-(3-(4,4-diphenylpiperidin-1-yl)propyl))carboxamidopyridine hydrochloride] | – | – | – | 0.123 µM | 32.4 µM | Ki [1, 7]: 0.162 µM
CCOC(=O)C1=C(CC(=O)NCCCN2CCC(c3ccccc3)(c3ccccc3)CC2)NC(C)=C(C(=O)OC)C1c1ccc([N+](=O)[O-])cc1 (stereo not drawn) [Example 89, 3-Ethoxycarbonyl-1,4-dihydro-5-methoxycarbonyl-6-methyl-4-(4-nitro)phenyl-2-(N-(3-(4,4,-diphenylpiperidin-1-yl)propyl)carboxamido)methylpyridine, fumarate salt] | 1.95 µM | 0.501 µM | 0.813 µM | – | – | –
COC(=O)C1=C(C)N(C)C(C)=C(C(=O)OCCCN2CCC(c3ccccc3)(c3ccccc3)CC2)C1c1ccc([N+](=O)[O-])cc1 (stereo not drawn) [Example 92, 1,4-Dihydro-5-methoxycarbonyl-1,2,6-trimethyl-4-(4-nitrophenyl)-3-[3-(4,4-diphenylpiperidin-1-yl)propoxy]carbonylpyridine hydrochloride hydrate] | 0.724 µM | 0.759 µM | 4.17 µM | – | – | –
COc1ccc(C2(c3ccccc3)CCN(CCCNC(=O)C3=C(C)NC(C)=C(C(N)=O)C3c3ccc([N+](=O)[O-])cc3)CC2)cc1 (stereo not drawn) [Example 98, 5-Carboxamido-1,4-dihydro-3-{N-[3-(4-(4-methoxyphenyl)-4-phenylpiperidin-1-yl)propyl]}carboxamido-2,6-dimethyl-4-(4-nitrophenyl)pyridine hydrochloride] | – | – | – | – | – | Ki [1, 8]: 0.589 µM; Ki [2, 9]: 0.427 µM; Ki [3, 10]: 1000 µM
CCC1=C(C(N)=O)C(c2ccc([N+](=O)[O-])cc2)C(C(=O)NCCCN2CCC(O)(c3ccccc3)CC2)=C(CC)N1 (stereo not drawn) [Example 100, 5-Carboxamido-2,6-diethyl-1,4-dihydro-3-{N-(3-(4-hydroxy-4-phenylpiperidin-1-yl)propyl]}carboxamido-4-(4-nitrophenyl)pyridine hydrochloride hydrate] | – | – | – | – | – | Ki [1, 8]: 2.88 µM; Ki [2, 9]: 1.78 µM; Ki [3, 10]: 1000 µM

Reference: patent publication US6608086B2, “Dihydropyridines and new uses thereof” (Synaptic Pharmaceutical Corporation, priority 1993, dated 2003)
